In US11466023B2, “Combination of a Mcl-1 inhibitor and a standard of care treatment for hematologic cancers, uses and pharmaceutical compositions thereof” (LES LABORATOIRES SERVIER, priority 2017, dated 2022):
Read-outs that look alike come from different tables or passages of the source.

Legend:
[1] = system: EOL-1 AML cell line; test: Single agent cell viability (CellTiterGlo); format: cell-based; conditions: Homo sapiens, EOL1, 72 h; EOL-1, single agent, 3 days incubation, CellTiterGlo; read-out: IC50
Protocol: (§1) Cell lines were cultured at 37° C. in a humidified atmosphere containing 5% CO2 and expanded in T-150 flasks. […] In order to analyse the activity of the compounds as single agents, cells were seeded and treated with nine 2-fold serial dilutions of each compound dispensed individually directly into the cell assay plates. […] All the experiments were performed in triplicates. Luminescence was quantified on a multipurpose plate reader. Single agent IC50s were calculated using standard four-parametric curve fitting.

[2] = system: GDM-1 AML cell line; test: Single agent cell viability (CellTiterGlo); format: cell-based; conditions: Homo sapiens, 72 h; GDM-1, single agent, 3 days incubation, CellTiterGlo; read-out: IC50
Protocol: as §1

[3] = system: HL-60 AML cell line; test: Single agent cell viability (CellTiterGlo); format: cell-based; conditions: Homo sapiens, 72 h; HL-60, single agent, 3 days incubation, CellTiterGlo; read-out: IC50
Protocol: as §1

[4] = system: KG1 AML cell line; test: Single agent cell viability (CellTiterGlo); format: cell-based; conditions: 72 h; KG1, single agent, 3 days incubation, CellTiterGlo; read-out: IC50
Protocol: as §1

[5] = system: KG1a AML cell line; test: Single agent cell viability (CellTiterGlo); format: cell-based; conditions: Homo sapiens, KG-1a, 72 h; KG1a, single agent, 3 days incubation, CellTiterGlo; read-out: IC50
Protocol: as §1

[6] = system: Kasumi-1 AML cell line; test: Single agent cell viability (CellTiterGlo); format: cell-based; conditions: Homo sapiens, 72 h; Kasumi-1, single agent, 3 days incubation, CellTiterGlo; read-out: IC50
Protocol: as §1

[7] = system: ML-2 AML cell line; test: Single agent cell viability (CellTiterGlo); format: cell-based; conditions: 72 h; ML-2, single agent, 3 days incubation, CellTiterGlo; read-out: IC50
Protocol: as §1

[8] = system: MOLM-13 AML cell line; test: Single agent cell viability (CellTiterGlo); format: cell-based; conditions: Homo sapiens, 72 h; MOLM-13, single agent, 3 days incubation, CellTiterGlo; read-out: IC50
Protocol: as §1

[9] = system: MV4; 11 AML cell line; test: Single agent cell viability (CellTiterGlo); format: cell-based; conditions: Homo sapiens, 72 h; MV4; 11, single agent, 3 days incubation, CellTiterGlo; read-out: IC50
Protocol: as §1

[10] = system: Nomo-1 AML cell line; test: Single agent cell viability (CellTiterGlo); format: cell-based; conditions: Homo sapiens, 72 h; Nomo-1, single agent, 3 days incubation, CellTiterGlo; read-out: IC50
Protocol: as §1

[11] = system: OCI-AML3 AML cell line; test: Single agent cell viability (CellTiterGlo); format: cell-based; conditions: Homo sapiens, OCI-AML-3, 72 h; OCI-AML3, single agent, 3 days incubation, CellTiterGlo; read-out: IC50
Protocol: as §1

[12] = system: PL-21 AML cell line; test: Single agent cell viability (CellTiterGlo); format: cell-based; conditions: 72 h; PL-21, single agent, 3 days incubation, CellTiterGlo; read-out: IC50
Protocol: as §1

[13] = system: THP-1 AML cell line; test: Single agent cell viability (CellTiterGlo); format: cell-based; conditions: Homo sapiens, 72 h; THP-1, single agent, 3 days incubation, CellTiterGlo; read-out: IC50
Protocol: as §1

[14] = system: mononuclear cells from AML patient samples; test: Cell viability assay (Sytox blue flow cytometry) in primary AML samples; format: cell-based, human; conditions: Homo sapiens, 48 h, combination at 1:1 ratio, read-out: 50% lethal concentration (LC50)
Protocol: Bone marrow samples from patients with AML were collected after informed consent in accordance with guidelines approved by The Alfred Hospital Human research ethics committee.
Mononuclear cells were isolated by density-gradient centrifugation Ficoll-Hypaque (GE Healthcare, Australia) density-gradient centrifugation and red cell lysis was performed using 0.156 M NH4Cl, 0.017 M Tris-HCl pH 7.2 as previously described (Rijal et al., Blood 2015, 125, 2815-2824). Cells were then re-suspended in phosphate-buffered saline containing 2% Fetal Bovine serum (FBS; Sigma, Australia). Mononuclear cells were then suspended in RPMI-1640 (GIBCO, Australia) medium containing penicillin and streptomycin (GIBCO) and heat inactivated fetal bovine serum 15% (Sigma). Cells were washed in phosphate-buffered saline (PBS) containing 2% FBS prior to use.
Freshly purified mononuclear cells from AML patient samples were adjusted to a concentration of 2.5×10^5/mL and 100 μL of cells aliquoted per well into 96 well plates (Sigma). Cells were then treated with idarubicin and Compound 2 over a […] concentration range from 1 nM to 10 μM for 48 hours. For combinations assays, drugs were added at a 1:1 ratio from 1 nM to 10 μM and cells were incubated at 37° C. 5% CO2. Cells were then stained with Sytox blue nucleic acid stain (Invitrogen, Australia) and fluorescence measured by flow cytometric analysis using the LSR-II Fortessa (Becton Dickinson, Australia). FACSDiva software was used for data collection, and FlowJo software for analysis. Blast cells were gated using forward and side scatter properties. Viable cells excluding Sytox blue were determined at 6 concentrations for each drug and the 50% lethal concentration (LC50, in μM) determined.

In the case of `CC(=O)[C@]1(O)Cc2c(O)c3c(c(O)c2[C@@H](O[C@H]2C[C@H](N)[C@H](O)[C@H](C)O2)C1)C(=O)c1ccccc1C3=O` [Idarubicin, idarubicin], the IC50 [1] is reported as 2 nM, the IC50 [2] is reported as 8 nM and the IC50 [3] is reported as 2 nM. The IC50 [4] was 6 nM, the IC50 [5] was 10 nM and the IC50 [6] was 3 nM. The IC50 [7] was 10 nM, the IC50 [8] was 3 nM and the IC50 [9] was 1 nM. The IC50 [10] was 28 nM, the IC50 [11] was 20 nM and the IC50 [12] was 23 nM. It also gave an IC50 [13] of 24 nM, a CC50 ([14]; Patient AML 6200840, 48 hours) of 384 nM and a CC50 ([14]; Patient AML AH0131936, 48 hours) of 886 nM. The CC50 ([14]; Patient AML AH0465385, 48 hours) was 5130 nM, the CC50 ([14]; Patient AML AH0607688, 48 hours) was 593 nM and the CC50 ([14]; Patient AML AH0979006, 48 hours) was 1.07 nM. For the same molecule, the CC50 ([14]; Patient AML AH1081582, 48 hours) was 184 nM, the CC50 ([14]; Patient AML AH1228742, 48 hours) was 404000 nM and the CC50 ([14]; Patient AML AH6120264, 48 hours) was 328 nM. For the same molecule, the CC50 ([14]; Patient AML AH6181414_2, 48 hours) was 3470 nM, the CC50 ([14]; Patient AML AH6202849, 48 hours) was 2870 nM and the CC50 ([14]; Patient AML AH6208160, 48 hours) was 1750 nM. The CC50 ([14]; Patient AML AH6208654, 48 hours) was 308 nM, the CC50 ([14]; Patient AML AH6210946, 48 hours) was 105 nM and the CC50 ([14]; Patient AML AH6214498, 48 hours) was 1.11 nM. For the same molecule, the CC50 ([14]; Patient AML AH6217528, 48 hours) was 33.5 nM, the CC50 ([14]; Patient AML AH6219953, 48 hours) was 4370 nM and the CC50 ([14]; Patient AML AH6220847, 48 hours) was 14.4 nM. For the same molecule, the CC50 ([14]; Patient AML AH6223646, 48 hours) was 315 nM, the CC50 ([14]; Patient AML AH6224104, 48 hours) was 192000 nM and the CC50 ([14]; Patient AML AH6229985, 48 hours) was 1.38 nM. The CC50 ([14]; Patient AML AH6607085, 48 hours) was 563 nM, the CC50 ([14]; Patient AML AH6615742, 48 hours) was 2930 nM and the CC50 ([14]; Patient AML AH6627892, 48 hours) was 2200 nM.
